From PMC10233829 (ACS Omega, 2023)
Converted amounts (≈) assume the structure as drawn.

What was measured:
S. aureus T5595 = test: MIC, twofold microdilution, clinical strain; format: cell-based, Staphylococcus aureus; conditions: Staphylococcus aureus, T5595, 18 h
E. coli 951 = test: MIC, twofold microdilution, clinical strain; format: cell-based; conditions: Escherichia coli, 18 h
S. epidermidis 4341 = test: MIC, twofold microdilution, clinical strain; format: cell-based; conditions: Staphylococcus epidermidis, 18 h
S. aureus ATCC 6538 = test: MIC, twofold microdilution, standard strain; format: cell-based, Staphylococcus aureus; conditions: Staphylococcus aureus, ATCC6538; standard strain, 18 h
[1] = test system: S. epidermidis ATCC 12228; test: MIC, twofold microdilution, standard strain; format: cell-based; conditions: Staphylococcus epidermidis, ATCC12228, 18 h
E. coli 520 = test: MIC, twofold microdilution, clinical strain; format: cell-based; conditions: Escherichia coli, 18 h
S. aureus 180 = test: MIC, twofold microdilution, clinical strain; format: cell-based; conditions: Staphylococcus aureus, 18 h
S. aureus T5591 = test: MIC, twofold microdilution, clinical strain; format: cell-based, Staphylococcus aureus; conditions: Staphylococcus aureus, T5591, 18 h
[2] = test system: Staphylococci (standard strains); test: MIC, standard Gram-positive strains as a panel; format: cell-based, S. aureus, S. epidermidis; conditions: standard Gram-positive strains of Table 1; read-out: MIC toward standard Staphylococci (range over strains)
S. epidermidis KR4243/1 = test: MIC, twofold microdilution, clinical strain; format: cell-based; conditions: Staphylococcus epidermidis, 18 h
S. aureus ATCC 29213 = test: MIC, twofold microdilution, standard strain; format: cell-based; conditions: Staphylococcus aureus, ATCC29213, 18 h
E. coli 600 = test: MIC, twofold microdilution, clinical strain; format: cell-based, Escherichia coli; conditions: Escherichia coli, 600, 18 h
[3] = test system: P. aeruginosa ATCC 15442 and E. coli ATCC 25922; test: MIC, standard Gram-negative rods as a panel; format: cell-based; conditions: P. aeruginosa ATCC 15442, E. coli ATCC 25922; read-out: MIC against standard Gram-negative rods (range over strains)
PC3 cells = test: MTT assay, cytotoxic activity; format: cell-based, human; conditions: Homo sapiens, PC-3, 72 h, MTT, 72 h
Description: Metastatic prostate cancer (PC3) and human immortal keratinocyte (HaCaT) cell lines were purchased from the American Type Culture Collection (ATCC, Rockville, MD, USA) and cultured in MEM (minimal essential medium, Thermo Sci, USA), RPMI 1640 (Roswell Park Memorial Institute, Biowest SAS, France), and DMEM (Dulbecco’s Modified Eagle’s Medium, Biowest SAS, France). Cells were seeded in 6 mL medium in a tissue culture flask (50 mL) in a 37 °C/5% CO2 humidified incubator. […] MTT analysis was performed according to a previous study.[59] Untreated cells were used as controls. Cell absorbance results were inserted into the formula for the relative MTT level (%). It allows to calculate the viability of cells under the influence of the tested compounds. Cell viability was expressed as the percentage of MTT reduction in cells treated with tested compounds compared to the control sample. The relative MTT level was calculated using the formula [100%] = A/B × 100% where A—the test sample absorbance and B—the control sample absorbance.

S. pasteuri KR 4358 = test: MIC, twofold microdilution, clinical strain; format: cell-based; conditions: Staphylococcus pasteuri, KR4358, 18 h
S. epidermidis 5253 = test: MIC, twofold microdilution, clinical strain; format: cell-based, Staphylococcus epidermidis; conditions: for MIC: Staphylococcus epidermidis, 5253, 18 h
P. aeruginosa ATCC 15442 = test: MIC, twofold microdilution, standard strain; format: cell-based, Pseudomonas aeruginosa; conditions: Pseudomonas aeruginosa, ATCC15442; standard strain, 18 h
S. aureus NCTC 4163 = test: MIC, twofold microdilution, standard strain; format: cell-based; conditions: Staphylococcus aureus, NCTC4163, 18 h
K. pneumoniae 510 = test: MIC, twofold microdilution, clinical strain; format: cell-based, Klebsiella pneumoniae; conditions: Klebsiella pneumoniae, 510; clinical strain, 18 h
E. coli ATCC 25922 = test: MIC, twofold microdilution, standard strain; format: cell-based, Escherichia coli; conditions: Escherichia coli, ATCC25922; standard strain, 18 h
[4] = test system: clinical bacterial strains; test: MIC, clinical isolates as groups of strains; format: cell-based
[5] = MTT assay, cytotoxic activity; format: cell-based; conditions: human, HaCaT cells (immortal keratinocytes); MTT, 72 h, normal cell line; read-out: IC50 HaCaT
Description: Cells were seeded in 6 mL medium in a tissue culture flask (50 mL) in a 37 °C/5% CO2 humidified incubator. […] MTT analysis was performed according to a previous study.[59] Untreated cells were used as controls. Cell absorbance results were inserted into the formula for the relative MTT level (%). It allows to calculate the viability of cells under the influence of the tested compounds. Cell viability was expressed as the percentage of MTT reduction in cells treated with tested compounds compared to the control sample. The relative MTT level was calculated using the formula [100%] = A/B × 100% where A—the test sample absorbance and B—the control sample absorbance.

E. cloacae 8 = test: MIC, twofold microdilution, clinical strain; format: cell-based, Escherichia cloacae; conditions: Enterobacter cloacae, 8; clinical strain, 18 h
S. aureus 5595 = test: MIC, twofold microdilution, clinical strain; format: cell-based; conditions: Staphylococcus aureus, 18 h
P. aeruginosa 659 = test: MIC, twofold microdilution, clinical strain; format: cell-based; conditions: Pseudomonas aeruginosa, 18 h
[6] = test system: M. tuberculosis Spec. 192; test: Tuberculostatic activity, Microplate Alamar Blue Assay (MIC); format: cell-based; conditions: Mycobacterium tuberculosis, MABA, read-out: MIC M. tuberculosis Spec. 192 (sensitive to tuberculostatics)
P. aeruginosa 37 = test: MIC, twofold microdilution, clinical strain; format: cell-based; conditions: Pseudomonas aeruginosa, 18 h
S. aureus ATCC 25923 = test: MIC, twofold microdilution, standard strain; format: cell-based; conditions: Staphylococcus aureus, ATCC25923, 18 h
M. tuberculosis H37Rv = test: Tuberculostatic activity, Microplate Alamar Blue Assay (MIC); format: cell-based, Mycobacterium tuberculosis; conditions: Mycobacterium tuberculosis, H37RV; MABA; read-out: MIC M. tuberculosis H37Rv
[7] = test system: S. epidermidis ATCC 35984; test: MIC, twofold microdilution, standard strain; format: cell-based; conditions: Staphylococcus epidermidis, ATCC35984, 18 h
K. pneumoniae 28 = test: MIC, twofold microdilution, clinical strain; format: cell-based; conditions: Klebsiella pneumoniae, 18 h
M. tuberculosis Spec 210 = test: microbe, parasite or virus in culture; format: cell-based, Mycobacterium tuberculosis; conditions: M. tuberculosis Spec. 210

| SMILES | MIC (S. aureus T5595) [µg/mL] | MIC (E. coli 951) [µg/mL] | MIC (S. epidermidis 4341) [µg/mL] | MIC (S. aureus ATCC 6538) [µg/mL] | MIC [1] [µg/mL] | MIC (E. coli 520) [µg/mL] | MIC (S. aureus 180) [µg/mL] | MIC (S. aureus T5591) [µg/mL] | MIC (S. epidermidis KR4243/1) [µg/mL] | MIC (S. aureus ATCC 29213) [µg/mL] | MIC (E. coli 600) [µg/mL] | MIC [3] [µg/mL] | IC50 (PC3 cells) [µM] | MIC (S. pasteuri KR 4358) [µg/mL] | MIC (S. epidermidis 5253) [µg/mL] | MIC (P. aeruginosa ATCC 15442) [µg/mL] | MIC (S. aureus NCTC 4163) [µg/mL] | MIC (K. pneumoniae 510) [µg/mL] | MIC (E. coli ATCC 25922) [µg/mL] | IC50 at 72 h [5] [µM] | also measured |
| --- | --- | --- | --- | --- | --- | --- | --- | --- | --- | --- | --- | --- | --- | --- | --- | --- | --- | --- | --- | --- | --- |
| O=C(O)c1cn(C2CC2)c2cc(N3CCN(C(=O)CCCCCCl)CC3)c(F)cc2c1=O [Compound 7, 7-[4-(6-Chlorohexanoyl)-piperazin-1-yl]-1-cyclopropyl-6-fluoro-4-oxo-1,4-dihydro-quinoline-3-carboxylic Acid] | 0.4 (≈ 0.862 µM) | > 25.6 | 25.6 (≈ 55.2 µM) | 0.2 (≈ 0.431 µM) | 0.4 (≈ 0.862 µM) | 6.4 (≈ 13.8 µM) | 0.5 (≈ 1.08 µM) | 0.4 (≈ 0.862 µM) | 0.2 (≈ 0.431 µM) | 0.2 (≈ 0.431 µM) | 6.4 (≈ 13.8 µM) | ≤ 1 | > 100 | 0.2 (≈ 0.431 µM) | > 25.6 | 12.8 (≈ 27.6 µM) | 0.2 (≈ 0.431 µM) | > 25.6 | 0.8 (≈ 1.72 µM) | > 100 | MIC [2]: 0.1 to 0.8 µg/mL (≈ 0.216 to 1.72 µM); share of the reference (CP) activity ([4]; S. aureus T5595 and T5591): 62.5%; MIC (E. cloacae 8): 16 µg/mL (≈ 34.5 µM); MIC (S. aureus 5595): 0.5 µg/mL (≈ 1.08 µM); MIC (P. aeruginosa 659): > 25.6 µg/mL; MIC [6]: 0.5 µg/mL (≈ 1.08 µM); MIC (P. aeruginosa 37): > 25.6 µg/mL; MIC (S. aureus ATCC 25923): 0.2 µg/mL (≈ 0.431 µM); MIC (M. tuberculosis H37Rv): 0.5 µg/mL (≈ 1.08 µM); MIC [7]: 0.2 µg/mL (≈ 0.431 µM); MIC (K. pneumoniae 28): > 25.6 µg/mL |
| O=C(O)c1cn(C2CC2)c2cc(N3CCN(C(=O)CBr)CC3)c(F)cc2c1=O [Compound 8, 7-[4-(2-Bromoacetyl)-piperazin-1-yl]-1-cyclopropyl-6-fluoro-4-oxo-1,4-dihydro-quinoline-3-carboxylic Acid] | 0.8 (≈ 1.77 µM) | 6.4 (≈ 14.2 µM) | 12.8 (≈ 28.3 µM) | 0.2 (≈ 0.442 µM) | 0.2 (≈ 0.442 µM) | 0.2 (≈ 0.442 µM) | 0.8 (≈ 1.77 µM) | 1.6 (≈ 3.54 µM) | 0.4 (≈ 0.884 µM) | 0.4 (≈ 0.884 µM) | 0.2 (≈ 0.442 µM) | ≤ 1 | 39.6 ± 4.3 | 0.2 (≈ 0.442 µM) | 12.8 to 25.6 (≈ 28.3 to 56.6 µM) | 3.2 (≈ 7.08 µM) | 0.2 (≈ 0.442 µM) | 25.6 (≈ 56.6 µM) | 0.2 (≈ 0.442 µM) | 44.9 ± 9 | MIC S. epidermidis 5253 (S. epidermidis 5253; 18 h): 25.6 µg/mL (≈ 56.6 µM); MIC ([4]; clinical strains, read-out: MIC against selected E. coli and E. cloacae strains): 0.1 to 0.8 µg/mL (≈ 0.221 to 1.77 µM); MIC (E. cloacae 8): 0.8 µg/mL (≈ 1.77 µM); MIC (S. aureus 5595): 0.4 µg/mL (≈ 0.884 µM); MIC (P. aeruginosa 659): 6.4 µg/mL (≈ 14.2 µM); MIC [6]: 32 µg/mL (≈ 70.8 µM); MIC (P. aeruginosa 37): 12.8 µg/mL (≈ 28.3 µM); MIC (S. aureus ATCC 25923): 0.2 µg/mL (≈ 0.442 µM); MIC (M. tuberculosis H37Rv): 32 µg/mL (≈ 70.8 µM); MIC [7]: 0.2 µg/mL (≈ 0.442 µM); MIC (K. pneumoniae 28): > 25.6 µg/mL; fold more effective than the reference tuberculostatics (M. tuberculosis Spec 210): 2–8 fold |
